Test results reported in PMC8521015, “Salicylic Acid, a Plant Hormone, Suppresses Phytophagous Insect Immune Response by Interrupting HMG-Like DSP1” (Frontiers in Physiology, 2021).

Biological target: T1, Se-DSP1 (Spodoptera exigua, UniProt A0A5P9L9K9)
T1 construct: full-length ORF, 505 residues; pET vector, bacterial expression, 6xHis and V5 tags, Ni-NTA then Sephadex G-100
T1 sequence (A0A5P9L9K9 1-505): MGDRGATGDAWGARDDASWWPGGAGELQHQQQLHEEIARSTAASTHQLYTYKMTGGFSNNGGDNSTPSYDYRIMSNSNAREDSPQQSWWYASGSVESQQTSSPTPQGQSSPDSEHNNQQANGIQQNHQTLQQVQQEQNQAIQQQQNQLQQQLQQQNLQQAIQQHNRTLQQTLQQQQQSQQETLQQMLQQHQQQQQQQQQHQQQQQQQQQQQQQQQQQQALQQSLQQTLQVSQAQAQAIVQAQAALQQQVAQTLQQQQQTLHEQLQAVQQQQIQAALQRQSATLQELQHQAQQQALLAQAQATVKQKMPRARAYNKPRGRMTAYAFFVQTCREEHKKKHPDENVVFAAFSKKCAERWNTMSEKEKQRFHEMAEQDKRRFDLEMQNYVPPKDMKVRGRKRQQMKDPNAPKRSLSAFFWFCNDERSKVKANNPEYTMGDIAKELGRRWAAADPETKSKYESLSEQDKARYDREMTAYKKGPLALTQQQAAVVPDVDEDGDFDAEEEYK
Assay: thermal shift assay (Protein Thermal Shift dye, StepOne real-time PCR)
Conditions: 0-20 μM SA; 500 ng protein; 25-99 °C at 2.96 °C/min; ligand binding equation fit of melting temperatures

O=C(O)c1ccccc1O [SA, 2-hydroxybenzoic acid]
Kd: 1280 ± 50 nM
